Where two headings read alike, the source gives them in different places.

Series [1] in a line: potentiometric titration: stability of the Ca(II) complex. The class given is physicochemical. Here is the method:
(§1) The solutions of Ca(II) could be prepared by dissolution of CaCI2 in water. The exact concentration of the ion Ca^2+ can be determined by colorimetric titration at a pH 12.5 using as a reference a solution of […] calgonite as an indicator. 20 mL of a solution of […] (3,10-^4 M), acidified (pH 2.5) 1:1 Ln:mixture of ligands ([L] 3.10-^4 M), acidified (pH 2.5) 1:1 Ca:mixture of ligands ([L] 7.10-^5M) are titrated in a cell with a thermostat (25.0° C.+/-0.1° C.) under Argon after addition of a solution of KOH 0.1 M. The ionic load was determined with KCl (μ=00.1 M). The titrations have been conducted with a Metrohm 751 GPD Titrino potentiometer fitted with a glass pH electrode. The electrode system was calibrated before each measurement. The electromotive load is given by the equation E=E°+sp[H^+] wherein E° and s are determined by titration of a known amount de HCl with 0.1 M KOH at μ=0.1 M (KCl), using the zone of the acid for the titration. […] More than 50 data points have been collected for each experiment.

For series [2] the following is noted: cited from earlier work.
A short description of series [3]: stability of the Gd complex (pGd). As to conditions: pH 7.4, [M]total=1 μM, [ligand]total=10 μM. Type of series: physicochemical.
Series [4] is described as follows: potentiometric titration: stability of the Eu(III) complex. The class given is physicochemical.
Description: as §1, with “For potentiometric titration, the solutions of the complex of Eu(III) may be prepared by dissolution of a determined amount of EuCI3.6H2O in water. […] The exact concentration of the ion Eu^3+ could be determined by colorimetric titration in an acetate buffer (pH=4.5), using as a reference a solution of […] orange xylenol as an indicator. The solutions” for “The solutions”

Series [5] can be described thus: potentiometric titration: de-protonation constants of the ligand. Type of series: physicochemical. As to conditions: 25.0° C., μ=0.1 M KCl, listed as H6tpaen. From the text:
Besides, five de-protonation constants [pKa1=2.8 (1), pKa22=3.2 (1), pKa3=3.9 (2), pKa4=5.1 (1) and pKa5=7.8 (1)] may be determined for the ligand H6tpaen by potentiometric titration as well the stability constants of the corresponding complexes of Eu^III and of CaII [log βEuL=15.3(3) for the complex of Eu^III and log βCaL=8.5 (5)].
For potentiometric titration, the solutions of the complex of Eu(III) may be prepared by dissolution of a determined amount of EuCI3.6H2O in water. The de-protonation constants of H6tpaen are given by Kai=[H6-iL]^2-1/[H5−iL]^1-i[H]^+, and as already mentioned previously, the values obtained are pKa1=2.8(1), pKa2=3.2(1), pKa3=3.9(2), pKa44=5.1(1) and pKa5=7.8(1).
The solutions of Ca(II) could be prepared by dissolution of CaCI2 in water. The exact concentration of the ion Ca^2+ can be determined by colorimetric titration at a pH 12.5 using as a reference a solution of H2Na2edta and calgonite as an indicator. 20 mL of a solution of H4tpaen (3,10−^4 M), acidified (pH˜2.5) 1:1 Ln:mixture of ligands ([L] 3.10−^4 M), acidified (pH˜2.5) 1:1 Ca:mixture of ligands ([L] 7.10−^5M) are titrated in a cell with a thermostat (25.0° C.+/−0.1° C.) under Argon after addition of a solution of KOH 0.1 M.
The ionic load was determined with KCl (μ=00.1 M). The titrations have been conducted with a Metrohm 751 GPD Titrino potentiometer fitted with a glass pH electrode. The electrode system was calibrated before each measurement.
The electromotive load is given by the equation E=E°+sp[H^+] wherein E° and s are determined by titration of a known amount de HCl with 0.1 M KOH at μ=0.1 M (KCl), using the zone of the acid for the titration. The value used for the ionic product of water was pKw=13.77. More than 50 data points have been collected for each experiment.

A short description of series [6]: absorption / excitation spectra. Type of series: physicochemical. The source says:
(full line) and [Tb(tpaen)] (dotted line) after excitation of the ligand at 274 nm.
An efficient energy transfer from the ligand to the metal is put forward by the resemblance between the excitation and absorption spectra of the Europium and Terbium complexes.

The conditions of series [7]: cited from earlier work. This is another data set of the same source.
The mark [8] stands for this setting: pH 7.4, [M]total=1 μM, [ligand]total=10 μM.

Regarding `O=C([O-])c1cccc(CN(CCN(Cc2cccc(C(=O)O)n2)Cc2cccc(C(=O)O)n2)Cc2cccc(C(=O)[O-])n2)n1.[Ca+2]` [Catpaen], in series [1] (potentiometric titration, 25.0° C., μ=0.1 M KCl), the “stability constant log βCaL” value is 8.5 (5).
On to `O=C(O)c1ccccc1C1=c2cc3c4c(c2Oc2c1cc1c5c2CCCN5CCC1)CCC[N+]=4CCC3.[Cl-]` [rhodamine 101], for which the “Qabs of the standard” value in series [2] (ethanol) is 100%.
As to `O=C(O)c1cccc(CN(CCN(Cc2cccc(C(=O)O)n2)Cc2cccc(C(=O)O)n2)Cc2cccc(C(=O)O)n2)n1` [tpaen, N,N,N′,N′-tetrakis[(6-carboxypyridine-2-yle)methyl]-ethylene diamine], the “pCa (−log [M]free)” value in series [1] (setting [8]) is on record as 8.5. Further, in series [3], the “pGd (−log [M]free)” value was determined as 15.0. Besides, the “selectivity for Europium with respect to calcium” value in series [4] (from pEu versus pCa) is on record as “good selectivity regarding Europium with respect to calcium”. In addition, the “pEu (−log [M]free)” value in series [4] (setting [8]) worked out at 15.7. Further, in series [5], the “de-protonation constant pKa1” value is 2.8 (1), the “de-protonation constant pKa2” value is given as 3.2 (1), the “de-protonation constant pKa3” value was 3.9 (2) and the “de-protonation constant pKa4” value was 5.1 (1). In addition, the “de-protonation constant pKa5” value in series [5] is recorded as 7.8 (1). Further, in series [6], the λexc is reported as 270 nm. Moreover, the ε in series [6] (at λexc) is 15800 M⁻¹ cm⁻¹.
On to `O=C(O)CN(CCN(CC(=O)O)CC(=O)O)CC(=O)O` [EDTA, tetra acetic diamine ethylene acid], for which the “pEu, comparison value for EDTA” value in series [7] was 14.0.
On to cresyl violet, for which, in series [2] (methanol), the “Qabs of the standard” value was 54%.

(Values after US8309058B2, “Method for obtaining highly luminescent lanthanide complexes” (Commissariat a l'Energie Atomique, priority 2005, dated 2012).)
